*1 amine or outer side, *2 acyl side, *3 side chain or, on linkers, in order; H or OH if unused. Where a SMILES comes first, the peptide text is derived from it. Bridges are numbered along the chain shown (N, C = ends). [ ]: non-standard residue; d: D form. X14 = O=C(CC[C@H](N[*:2])C(=O)[*:3])[*:1]; X8 = O=C(CC[C@@H](N[*:2])C(=O)[*:3])[*:1]; 2Nal = N[C@@H](Cc1ccc2ccccc2c1)C(=O)O; AEF = NCCOc1ccc(C[C@H](N)C(=O)O)cc1; X1 = O=C(Cc1ccc(CN[*:1])cc1)[*:2]; 3Pal = N[C@@H](Cc1cccnc1)C(=O)O; αMeL = CC(C)C[C@](C)(N)C(=O)O; CH2COCH2 = O=C(C[*:1])C[*:2]; NMeS = CN[C@@H](CO)C(=O)O; Dab = NCC[C@H](N)C(=O)O; βAla = NCCC(=O)O
Tests used:
[1] = Peptide stability in simulated gastric fluid (SGF); format: in vitro ADME; settings: 37 °C, porcine pepsin; for remaining at 1 h, 10 µM / remaining at 4 h, 10 µM: pig, simulated gastric fluid (SGF) with porcine pepsin (3.2 g/L), pH 1.2, 10 µM; for remaining at 1 h, 10 µM: read-out: SGF (% remaining 1 h); for remaining at 4 h, 10 µM: read-out: SGF (% remaining 4 h)
Protocol: (§1) SGF was prepared by dissolving sodium chloride (0.2 g) in 50 mL of water. A volume of 0.7 mL of 10 M HCl was added to adjust the pH of the solution to 1.2 and the volume made up to 100 mL with water. […] SIF was prepared by dissolving monobasic potassium phosphate (0.68 g) in 50 mL of water and adjusting the pH to 6.8 with 1 M NaOH. The volume was subsequently made up to 100 mL with water. 200 mg porcine pancreatin (P1625, Sigma Aldrich) was gently dissolved into 20 mL preheated (37 °C) solution (10 g/L) immediately prior to the incubation.
(§2) The incubation was performed at 37 °C with gentle shaking. […] After the last timepoint, the sampling plate was mixed for 10 min on a shaking table and centrifuged 10 min at 2200 g. 70 µL resulting supernatant was diluted with 150 µL water, mixed and centrifugated before analysis by liquid chromatography high resolution mass spectrometry. […] Percent remaining at each timepoint was calculated relative to timepoint zero based on absolute peak areas.
Compounds with a SGF stability (after 4 h) above 70% are considered highly SGF stable. […] Table 3-4: SGF data

[2] = Peptide stability in simulated intestinal fluid (SIF); format: in vitro ADME; settings: 37 °C, porcine pancreatin; for remaining at 1 h, 10 µM / remaining at 4 h, 10 µM: pig; for remaining at 4 h, 10 µM: read-out: SIF (% remaining 4 h)
Protocol: as §1, §2
Compounds with a SIF stability (after 4 h) above 70% are considered highly SIF stable.

[3] = target: T1, human IL-23R (Homo sapiens, UniProt Q5VWK5); assay: biochemical; settings: for Emax: read-out: % displacement (hIL-23R NIuc)
T1 sequence (Q5VWK5 22-629): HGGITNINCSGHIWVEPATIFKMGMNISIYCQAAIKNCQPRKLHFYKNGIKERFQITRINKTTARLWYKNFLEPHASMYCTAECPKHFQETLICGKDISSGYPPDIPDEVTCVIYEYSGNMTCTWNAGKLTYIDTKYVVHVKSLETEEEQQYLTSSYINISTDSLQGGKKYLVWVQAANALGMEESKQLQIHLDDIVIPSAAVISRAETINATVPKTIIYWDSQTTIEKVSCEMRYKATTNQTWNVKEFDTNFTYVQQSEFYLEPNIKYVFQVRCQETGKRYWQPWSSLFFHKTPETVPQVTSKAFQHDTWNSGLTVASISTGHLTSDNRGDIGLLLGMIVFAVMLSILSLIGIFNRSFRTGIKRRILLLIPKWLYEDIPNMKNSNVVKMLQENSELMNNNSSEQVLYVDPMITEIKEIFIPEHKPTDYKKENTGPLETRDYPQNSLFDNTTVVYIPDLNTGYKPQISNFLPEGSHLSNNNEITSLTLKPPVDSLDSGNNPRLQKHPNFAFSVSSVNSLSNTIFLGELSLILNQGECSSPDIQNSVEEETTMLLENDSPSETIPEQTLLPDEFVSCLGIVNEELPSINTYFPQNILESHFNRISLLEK
Summary of the method: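 BRET displacement of a TAMRA-labelled reference compound from N-terminal Nanoluc-IL-23R fusion protein in membranes from stably transfected HEK293 cells. Incubation 2 h at room temperature, then Nanoluc substrate was added and the TAMRA/Nanoluc ratio read. IC50 and maximal displacement came from 4-parameter logistic fits.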

SMILES	IC50 [3] [nM]	Emax [3] [%]	% displacement (hIL-23R NIuc) [3] [%]	also measured
CC(C)C[C@@H]1NC(=O)[C@H](Cc2c[nH]c3ccccc23)NC(=O)[C@H](Cc2c[nH]c3ccccc23)NC(=O)[C@@H]2CSCC(=O)CSC[C@H](NC(=O)[C@H](CO)NC(=O)[C@@H](NC(=O)[C@@H](N)CC(=O)O)CSCC(=O)CSC[C@@H](C(=O)N[C@@H](CCCNC(=N)N)C(N)=O)NC1=O)C(=O)N[C@@H](Cc1c[nH]c3ccccc13)C(=O)N[C@@H](CCC(N)=O)C(=O)N2 (single isomer, unassigned) [I3 (isomer 3), H-DC(1a)SC(2a)WQC(2a)WWLC(1a)R-[NH2], reference compound]	–	–	–	SGF (% remaining 1 h) ([1]; 10 µM, pH 1.2, 1 h): 5%; SGF (% remaining 4 h) ([1]; 10 µM, pH 1.2, 4 h): 0%; SIF (% remaining 1 h) ([2]; 10 µM, pH 6.8, 1 h): 0%; SIF (% remaining 4 h) ([2]; 10 µM, pH 6.8, 4 h): 0%
CC[C@H](C)[C@@H]1NC(=O)[C@@H]2CCCCNC(=O)CC[C@@H](C(=O)NCC(=O)N[C@H](Cc3cccnc3)C(N)=O)NC(=O)[C@](C)(C(C)C)NC(=O)[C@H](Cc3ccc4ccccc4c3)NC(=O)[C@H](Cc3ccc(C)cc3)NC(=O)[C@H](CCC(=O)N2)NC(=O)[C@H](CCC(N)=O)NC(=O)[C@H](Cc2c[nH]c3ccccc23)NC(=O)[C@H](C(C)C)NC1=O [Compound 19, K(1c)(6c)^†IVWQE(6c)[F(4-Me)][2-Nal][2-Me-Val]E(1c)G[{d}3-(3-Pyridyl)-Ala]-[NH2]]	37	103	–	remaining at 1 h, 10 µM ([1]; pH 1.2, 1 h): 78%; remaining at 4 h, 10 µM ([1]; pH 1.2, 4 h): 6%; remaining at 1 h, 10 µM ([2]; pH 6.8, 1 h): 90%; remaining at 4 h, 10 µM ([2]; pH 6.8, 4 h): 27%
CC[C@H](C)[C@@H]1NC(=O)[C@@H]2CCCCNC(=O)CC[C@@H](C(=O)NCCc3cccnc3)NC(=O)[C@](C)(C(C)C)NC(=O)[C@H](Cc3ccc4ccccc4c3)NC(=O)[C@H](Cc3ccc(OCCN)cc3)NC(=O)[C@H](CCC(=O)N2)NC(=O)[C@H](CCC(N)=O)NC(=O)[C@H](Cc2c[nH]c3ccccc23)NC(=O)[C@H](C(C)C)NC1=O [Compound 26, K(1c)(6c)^†IVWQE(6c)[Y(2-aminoethoxy)][2-Nal][2-Me-Val]E(1c)-[NH-2-(pyridin-3-yl)ethyl]]	320	–	101	remaining at 1 h, 10 µM ([1]; pH 1.2, 1 h): 95%; remaining at 4 h, 10 µM ([1]; pH 1.2, 4 h): 96%; remaining at 1 h, 10 µM ([2]; pH 6.8, 1 h): 97%; remaining at 4 h, 10 µM ([2]; pH 6.8, 4 h): 96%
CNC(=O)[C@H](Cc1cccnc1)NC(=O)[C@H](CCN)NC(=O)[C@@H]1CCC(=O)N[C@H]2CCNC(=O)CC[C@H](NC(=O)[C@H](CCC(N)=O)NC(=O)[C@H](Cc3c[nH]c4ccccc34)NC(=O)CNC2=O)C(=O)N[C@@H](Cc2ccc(OCCN)cc2)C(=O)N[C@@H](Cc2ccc3ccccc3c2)C(=O)N[C@@](C)(CC(C)C)C(=O)N1 [Compound 105, [iso-Dab](1c)^†(6c)GWQE(6c)[Y(2-aminoethoxy)][2-Nal][2-Me-Leu]E(1c)[Dab][3-(3-Pyridyl)-Ala]-[NHMe]]	11	101	–	–
CNC(=O)[C@H](Cc1cccnc1)NC(=O)[C@H](CCN)NC(=O)[C@@H]1CCCCNC(=O)[C@@H]2CCC(=O)N[C@@H](Cc3c[nH]c4ccccc34)C(=O)N[C@@H](CCC(N)=O)C(=O)N[C@@H](CCC(=O)N2)C(=O)N[C@@H](Cc2ccc(OCCN)cc2)C(=O)N[C@@H](Cc2ccc3ccccc3c2)C(=O)N[C@@](C)(CC(C)C)C(=O)N1 [Compound 106, [iso-Glu](1c)^‡(6c)^†WQE(6c)[Y(2-aminoethoxy)][2-Nal][2-Me-Leu]K(1c)[Dab][3-(3-Pyridyl)-Ala]-[NHMe]] (WQE[AEF][2Nal][αMeL]K[Dab][3Pal]-NHMe; linker N-3-7 via X14)	2.5	–	99	–
CNC(=O)[C@H](Cc1cccnc1)NC(=O)[C@H](CCN)NC(=O)[C@@H]1CCNC(=O)[C@@H]2CCC(=O)N[C@@H](Cc3c[nH]c4ccccc34)C(=O)N[C@@H](CCC(N)=O)C(=O)N[C@@H](CCC(=O)N2)C(=O)N[C@@H](Cc2ccc(OCCN)cc2)C(=O)N[C@@H](Cc2ccc3ccccc3c2)C(=O)N[C@@](C)(CC(C)C)C(=O)N1 [Compound 107, [iso-Glu](1c)^‡(6c)^†WQE(6c)[Y(2-aminoethoxy)][2-Nal][2-Me-Leu][Dab](1c)[Dab][3-(3-Pyridyl)-Ala]-[NHMe]] (WQE[AEF][2Nal][αMeL][Dab][Dab][3Pal]-NHMe; linker N-3-7 via X14)	–	97	–	–

More lines, main results first:

IC50 [3] [nM]	Emax [3] [%]	% displacement (hIL-23R NIuc) [3] [%]	SMILES	also measured
16	101	–	CNC(=O)[C@H](Cc1cccnc1)NC(=O)[C@H](CCN)NC(=O)[C@@H]1CCCCNC(=O)[C@H]2CCC(=O)N[C@@H](Cc3c[nH]c4ccccc34)C(=O)N[C@@H](CCC(N)=O)C(=O)N[C@@H](CCC(=O)N2)C(=O)N[C@@H](Cc2ccc(OCCN)cc2)C(=O)N[C@@H](Cc2ccc3ccccc3c2)C(=O)N[C@@](C)(CC(C)C)C(=O)N1 [Compound 108, [{d}iso-Glu](1c)^‡(6c)^†WQE(6c)[Y(2-aminoethoxy)][2-Nal][2-Me-Leu]K(1c)[Dab][3-(3-Pyridyl)-Ala]-[NHMe]] (WQE[AEF][2Nal][αMeL]K[Dab][3Pal]-NHMe; linker N-3-7 via X8)	–
26	96	–	CNC(=O)[C@H](Cc1cccnc1)NC(=O)[C@H](CCN)NC(=O)[C@@H]1CCNC(=O)[C@H]2CCC(=O)N[C@@H](Cc3c[nH]c4ccccc34)C(=O)N[C@@H](CCC(N)=O)C(=O)N[C@@H](CCC(=O)N2)C(=O)N[C@@H](Cc2ccc(OCCN)cc2)C(=O)N[C@@H](Cc2ccc3ccccc3c2)C(=O)N[C@@](C)(CC(C)C)C(=O)N1 [Compound 109, [{d}iso-Glu](1c)^‡(6c)^†WQE(6c)[Y(2-aminoethoxy)][2-Nal][2-Me-Leu][Dab](1c)[Dab][3-(3-Pyridyl)-Ala]-[NHMe]] (WQE[AEF][2Nal][αMeL][Dab][Dab][3Pal]-NHMe; linker N-3-7 via X8)	–
0.079	100	–	CNC(=O)[C@H](Cc1cccnc1)NC(=O)[C@H](CCN)NC(=O)[C@@H]1CCC(=O)NCCCC[C@@H]2NC(=O)CC[C@H](NC(=O)[C@H](CCC(N)=O)NC(=O)[C@H](Cc3c[nH]c4ccccc34)NC(=O)CCNC2=O)C(=O)N[C@@H](Cc2c[nH]c3ccccc23)C(=O)N[C@@H](Cc2ccc3ccccc3c2)C(=O)N[C@@](C)(CC(C)C)C(=O)N1 [Compound 110, K(1c)(6c)^†[3-Aminopropanoyl]WQE(6c)W[2-Nal][2-Me-Leu]E(1c)[Dab][3-(3-Pyridyl)-Ala]-[NHMe]] (K[βAla]WQEW[2Nal][αMeL]E[Dab][3Pal]-NHMe; lactam 1-9, N-5)	–
3.5	–	102	CC(C)C[C@]1(C)NC(=O)[C@H](Cc2ccc3ccccc3c2)NC(=O)[C@H](Cc2ccc(OCCN)cc2)NC(=O)[C@@H]2CSCC(=O)CSC[C@H](NC(=O)[C@H](CO)N(C)C(=O)Cc3ccc(cc3)CNC(=O)CC[C@@H](C(=O)N[C@@H](CCN)C(N)=O)NC1=O)C(=O)N[C@@H](Cc1c[nH]c3ccccc13)C(=O)N[C@@H](CCC(N)=O)C(=O)N2 [Ref 141, [4-Aminomethyl-phenylacetyl](1c)*[N-Me-Ser]C(2a)WQC(2a)[Y(2-aminoethoxy)][2-Nal][2-Me-Leu]E(1c)[Dab]-[NH2], reference compound] ([X1][NMeS]CWQC[AEF][2Nal][αMeL]E[Dab]-NH2; linker 3-6 via CH2COCH2; lactam N-10)	–
